According to PMC11480411, “Mucosal sugars delineate pyrazine vs pyrazinone autoinducer signaling in Klebsiella oxytoca” (Nature Communications, 2024):

How the values were obtained:
Test in all cases: PRESTO-Tango GPCR screen
Assay type in all cases: cell-based
Details in all cases: 100 µM
[1] = biological target: T1, GAL3 (Homo sapiens, UniProt O60755)
T1 construct: purchased PRESTO-Tango GPCR kit (Roth lab / Addgene)
Procedure: (§1) The PRESTO-Tango analyses were performed as previously published. Briefly, HTLA cells, a HEK293 cell line that stably expresses β-arrestin-TEV and tTA-Luciferase (a kind gift from Gilad Barnea, Brown University), were plated in 96-well tissue culture plates (Eppendorf) in DMEM containing 10% FBS and 1% Penicillin/Streptomycin. One day after plating (after reaching approximately 90% confluence), 200 ng per well GPCR-Tango plasmids[37] in 20 μL DMEM were individually mixed with 400 ng polyethylenimine (Polysciences) in an equal volume of DMEM and incubated for 20 min at room temperature before adding the transfection mixture to the HTLA cells. 16-24 h after transfection, medium was replaced with 180 μL fresh DMEM containing 1% Penicillin/Streptomycin and 10 mM HEPES and 20 μL of 3 or 3-Homo to reach a final concentration of 100 μM. Supernatants were aspirated 20 h after stimulation and 50 μl per well of Bright-Glo solution (Promega) diluted 20-fold with PBS containing 20 mM HEPES was added into each well. After 15 min incubation at room temperature, luminescence was quantified using a Spectramax i3x microplate reader (Molecular Devices). Activation fold for each sample was calculated by dividing relative luminescence units (RLU) for each condition by RLUs from PBS control. Dose response curves of each chemical were performed in a similar way with varying the ligand concentration from 10^−4 M to 10^−15 M.

[2] = biological target: T2, GPR37 (Homo sapiens, UniProt O15354)
T2 construct: purchased PRESTO-Tango GPCR kit (Roth lab / Addgene)
Procedure: as §1

[3] = biological target: T3, S1PR4 (Homo sapiens, UniProt O95977)
T3 construct: purchased PRESTO-Tango GPCR kit (Roth lab / Addgene)
Procedure: as §1

[4] = biological target: T4, MC5R (Homo sapiens, UniProt P33032)
T4 construct: purchased PRESTO-Tango GPCR kit (Roth lab / Addgene)
Procedure: as §1

[5] = biological target: T5, GAL1 (Homo sapiens, UniProt P47211)
T5 construct: purchased PRESTO-Tango GPCR kit (Roth lab / Addgene)
Procedure: as §1

[6] = biological target: T6, HCTR1 (Homo sapiens, UniProt O43613)
T6 construct: purchased PRESTO-Tango GPCR kit (Roth lab / Addgene)
Procedure: as §1

[7] = biological target: T7, MC4R (Homo sapiens, UniProt P32245)
T7 construct: purchased PRESTO-Tango GPCR kit (Roth lab / Addgene)
Procedure: as §1

[8] = biological target: T8, GIPR (Homo sapiens, UniProt P48546)
T8 construct: purchased PRESTO-Tango GPCR kit (Roth lab / Addgene)
Procedure: as §1

[9] = biological target: T9, ADRB2 (Homo sapiens, UniProt P07550)
T9 construct: purchased PRESTO-Tango GPCR kit (Roth lab / Addgene)
Procedure: as §1

[10] = biological target: T10, HTR7 (Homo sapiens, UniProt P34969)
T10 construct: purchased PRESTO-Tango GPCR kit (Roth lab / Addgene)
Procedure: as §1

[11] = biological target: T11, CMKLR1 (Homo sapiens, UniProt Q99788)
T11 construct: purchased PRESTO-Tango GPCR kit (Roth lab / Addgene)
Procedure: as §1

[12] = biological target: T12, HTR1F (Homo sapiens, UniProt P30939)
T12 construct: purchased PRESTO-Tango GPCR kit (Roth lab / Addgene)
Procedure: as §1

[13] = biological target: T13, PRRP (Homo sapiens, UniProt P49683)
T13 construct: purchased PRESTO-Tango GPCR kit (Roth lab / Addgene)
Procedure: as §1

[14] = biological target: T14, P2RY14 (Homo sapiens, UniProt Q15391)
T14 construct: purchased PRESTO-Tango GPCR kit (Roth lab / Addgene)
Procedure: as §1

[15] = biological target: T15, TBXA2R (Homo sapiens, UniProt P21731)
T15 construct: purchased PRESTO-Tango GPCR kit (Roth lab / Addgene)
Procedure: as §1

[16] = biological target: T16, GPR162 (Homo sapiens, UniProt Q16538)
T16 construct: purchased PRESTO-Tango GPCR kit (Roth lab / Addgene)
Procedure: as §1

[17] = biological target: T17, CCKAR (Homo sapiens, UniProt P32238)
T17 construct: purchased PRESTO-Tango GPCR kit (Roth lab / Addgene)
Procedure: as §1

[18] = biological target: T18, EDNRA (Homo sapiens, UniProt P25101)
T18 construct: purchased PRESTO-Tango GPCR kit (Roth lab / Addgene)
Procedure: as §1

[19] = biological target: T19, GLP1R (Homo sapiens, UniProt P43220)
T19 construct: purchased PRESTO-Tango GPCR kit (Roth lab / Addgene)
Procedure: as §1

[20] = biological target: T20, ADORA2B (Homo sapiens, UniProt P29275)
T20 construct: purchased PRESTO-Tango GPCR kit (Roth lab / Addgene)
Procedure: as §1

[21] = biological target: T21, GPR62 (Homo sapiens, UniProt Q9BZJ7)
T21 construct: purchased PRESTO-Tango GPCR kit (Roth lab / Addgene)
Procedure: as §1

[22] = biological target: T22, FSHR (Homo sapiens, UniProt P23945)
T22 construct: purchased PRESTO-Tango GPCR kit (Roth lab / Addgene)
Procedure: as §1

[23] = biological target: T23, NPS (Homo sapiens, UniProt Q6W5P4)
T23 construct: purchased PRESTO-Tango GPCR kit (Roth lab / Addgene)
Procedure: as §1

[24] = biological target: T24, LPAR1 (Homo sapiens, UniProt Q92633)
T24 construct: purchased PRESTO-Tango GPCR kit (Roth lab / Addgene)
Procedure: as §1

[25] = biological target: T25, P2RY11 (Homo sapiens, UniProt Q96G91)
T25 construct: purchased PRESTO-Tango GPCR kit (Roth lab / Addgene)
Procedure: as §1

[26] = biological target: T26, S1PR5 (Homo sapiens, UniProt Q9H228)
T26 construct: purchased PRESTO-Tango GPCR kit (Roth lab / Addgene)
Procedure: as §1

[27] = biological target: T27, GPR153 (Homo sapiens, UniProt Q6NV75)
T27 construct: purchased PRESTO-Tango GPCR kit (Roth lab / Addgene)
Procedure: as §1

[28] = biological target: T28, C3AR1 (Homo sapiens, UniProt Q16581)
T28 construct: purchased PRESTO-Tango GPCR kit (Roth lab / Addgene)
Procedure: as §1

[29] = biological target: T29, MRGPRX3 (Homo sapiens, UniProt Q96LB0)
T29 construct: purchased PRESTO-Tango GPCR kit (Roth lab / Addgene)
Procedure: as §1

[30] = biological target: T30, HTR6 (Homo sapiens, UniProt P50406)
T30 construct: purchased PRESTO-Tango GPCR kit (Roth lab / Addgene)
Procedure: as §1

[31] = biological target: T31, GNRHR (Homo sapiens, UniProt P30968)
T31 construct: purchased PRESTO-Tango GPCR kit (Roth lab / Addgene)
Procedure: as §1

[32] = biological target: T32, TACR2 (Homo sapiens, UniProt P21452)
T32 construct: purchased PRESTO-Tango GPCR kit (Roth lab / Addgene)
Procedure: as §1

[33] = biological target: T33, PTGDR (Homo sapiens, UniProt Q13258)
T33 construct: purchased PRESTO-Tango GPCR kit (Roth lab / Addgene)
Procedure: as §1

[34] = biological target: T34, CCRL2 (Homo sapiens, UniProt O00421)
T34 construct: purchased PRESTO-Tango GPCR kit (Roth lab / Addgene)
Procedure: as §1

[35] = biological target: T35, MTNR1B (Homo sapiens, UniProt P49286)
T35 construct: purchased PRESTO-Tango GPCR kit (Roth lab / Addgene)
Procedure: as §1

[36] = biological target: T36, GPRC5D (Homo sapiens, UniProt Q9NZD1)
T36 construct: purchased PRESTO-Tango GPCR kit (Roth lab / Addgene)
Procedure: as §1

T1 sequence (O60755 whole entry): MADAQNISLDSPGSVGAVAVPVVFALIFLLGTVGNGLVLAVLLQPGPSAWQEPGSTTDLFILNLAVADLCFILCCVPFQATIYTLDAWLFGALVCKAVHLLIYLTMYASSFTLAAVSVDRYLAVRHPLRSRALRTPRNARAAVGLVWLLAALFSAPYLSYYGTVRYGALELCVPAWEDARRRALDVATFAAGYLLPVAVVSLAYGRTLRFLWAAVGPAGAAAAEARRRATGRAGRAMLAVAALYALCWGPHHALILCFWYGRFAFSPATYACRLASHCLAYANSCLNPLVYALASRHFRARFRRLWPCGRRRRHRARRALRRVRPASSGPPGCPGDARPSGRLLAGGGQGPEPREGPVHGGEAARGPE
T24 sequence (Q92633 whole entry): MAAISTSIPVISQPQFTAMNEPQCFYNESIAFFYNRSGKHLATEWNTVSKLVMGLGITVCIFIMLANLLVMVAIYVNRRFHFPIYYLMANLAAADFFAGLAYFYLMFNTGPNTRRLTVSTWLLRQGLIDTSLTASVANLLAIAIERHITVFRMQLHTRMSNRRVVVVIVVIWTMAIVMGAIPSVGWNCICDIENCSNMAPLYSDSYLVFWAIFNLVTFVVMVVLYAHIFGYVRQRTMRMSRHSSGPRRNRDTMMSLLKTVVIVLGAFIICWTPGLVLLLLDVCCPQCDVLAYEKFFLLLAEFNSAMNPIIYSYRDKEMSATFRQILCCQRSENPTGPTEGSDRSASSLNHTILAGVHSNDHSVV
T29 sequence (Q96LB0 whole entry): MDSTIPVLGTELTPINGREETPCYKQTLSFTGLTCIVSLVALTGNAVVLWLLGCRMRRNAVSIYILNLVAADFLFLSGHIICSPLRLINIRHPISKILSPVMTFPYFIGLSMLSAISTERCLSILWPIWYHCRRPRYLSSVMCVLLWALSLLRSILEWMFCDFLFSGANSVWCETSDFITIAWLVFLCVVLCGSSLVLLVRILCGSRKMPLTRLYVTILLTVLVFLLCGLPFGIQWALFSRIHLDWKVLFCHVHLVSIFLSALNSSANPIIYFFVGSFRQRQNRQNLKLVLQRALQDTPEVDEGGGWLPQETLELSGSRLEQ
T19 sequence (P43220 24-463): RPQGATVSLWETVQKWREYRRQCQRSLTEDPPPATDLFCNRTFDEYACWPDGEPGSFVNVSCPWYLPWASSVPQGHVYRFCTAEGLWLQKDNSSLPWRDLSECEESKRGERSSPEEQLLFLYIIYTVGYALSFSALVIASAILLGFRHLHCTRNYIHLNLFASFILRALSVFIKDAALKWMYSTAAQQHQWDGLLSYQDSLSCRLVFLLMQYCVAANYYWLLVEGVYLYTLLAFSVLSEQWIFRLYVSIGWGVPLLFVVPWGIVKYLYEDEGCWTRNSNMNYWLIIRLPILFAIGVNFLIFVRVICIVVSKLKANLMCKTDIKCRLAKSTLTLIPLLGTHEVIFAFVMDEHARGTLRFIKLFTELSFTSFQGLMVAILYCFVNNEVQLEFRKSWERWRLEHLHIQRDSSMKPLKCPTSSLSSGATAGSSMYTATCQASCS
T26 sequence (Q9H228 whole entry): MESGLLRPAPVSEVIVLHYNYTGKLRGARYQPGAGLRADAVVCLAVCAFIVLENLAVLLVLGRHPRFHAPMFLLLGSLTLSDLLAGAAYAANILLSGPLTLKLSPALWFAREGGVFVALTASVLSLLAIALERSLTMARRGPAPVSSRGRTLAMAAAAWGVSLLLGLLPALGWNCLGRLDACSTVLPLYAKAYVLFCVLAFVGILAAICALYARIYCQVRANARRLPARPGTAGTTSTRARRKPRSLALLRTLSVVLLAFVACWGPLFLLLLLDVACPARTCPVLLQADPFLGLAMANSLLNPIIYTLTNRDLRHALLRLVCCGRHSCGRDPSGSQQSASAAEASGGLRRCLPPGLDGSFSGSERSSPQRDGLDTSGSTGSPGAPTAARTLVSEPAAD
T8 sequence (P48546 22-466): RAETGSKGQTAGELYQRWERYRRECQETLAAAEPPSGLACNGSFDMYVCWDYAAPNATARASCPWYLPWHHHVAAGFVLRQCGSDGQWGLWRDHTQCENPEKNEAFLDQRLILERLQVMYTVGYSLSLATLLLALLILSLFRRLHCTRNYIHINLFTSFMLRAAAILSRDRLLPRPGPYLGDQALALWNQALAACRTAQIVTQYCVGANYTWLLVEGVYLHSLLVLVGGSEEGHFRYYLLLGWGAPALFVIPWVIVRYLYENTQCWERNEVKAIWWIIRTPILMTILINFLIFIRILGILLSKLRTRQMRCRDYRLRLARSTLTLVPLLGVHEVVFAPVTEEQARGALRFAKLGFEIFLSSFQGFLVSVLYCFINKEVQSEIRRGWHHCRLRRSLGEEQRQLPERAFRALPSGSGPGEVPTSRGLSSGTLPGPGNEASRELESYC
T2 sequence (O15354 27-613): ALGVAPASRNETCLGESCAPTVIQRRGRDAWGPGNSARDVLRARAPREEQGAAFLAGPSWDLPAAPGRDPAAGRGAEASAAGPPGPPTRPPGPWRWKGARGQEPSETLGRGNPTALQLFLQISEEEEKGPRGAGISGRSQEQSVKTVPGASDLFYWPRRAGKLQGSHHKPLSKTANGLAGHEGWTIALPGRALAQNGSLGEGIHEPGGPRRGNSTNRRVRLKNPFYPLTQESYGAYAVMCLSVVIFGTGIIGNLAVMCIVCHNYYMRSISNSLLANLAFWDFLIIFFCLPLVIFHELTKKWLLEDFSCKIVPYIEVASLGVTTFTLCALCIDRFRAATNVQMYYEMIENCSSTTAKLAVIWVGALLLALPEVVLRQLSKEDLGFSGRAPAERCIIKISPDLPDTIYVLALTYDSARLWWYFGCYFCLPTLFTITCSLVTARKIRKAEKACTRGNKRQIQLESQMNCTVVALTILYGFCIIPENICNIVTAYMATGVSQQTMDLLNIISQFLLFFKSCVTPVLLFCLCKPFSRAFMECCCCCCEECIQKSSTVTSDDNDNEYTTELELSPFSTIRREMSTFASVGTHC
T36 sequence (Q9NZD1 whole entry): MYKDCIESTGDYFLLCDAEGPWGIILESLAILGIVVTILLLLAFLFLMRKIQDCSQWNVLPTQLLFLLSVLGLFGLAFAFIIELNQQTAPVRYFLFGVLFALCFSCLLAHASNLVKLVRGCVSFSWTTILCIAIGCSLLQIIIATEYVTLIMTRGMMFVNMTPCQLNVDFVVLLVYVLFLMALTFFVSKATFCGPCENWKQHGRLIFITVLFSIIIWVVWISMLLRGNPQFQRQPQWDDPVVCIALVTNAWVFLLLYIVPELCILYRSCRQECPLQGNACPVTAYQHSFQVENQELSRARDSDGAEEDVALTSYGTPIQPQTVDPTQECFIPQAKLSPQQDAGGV
T10 sequence (P34969 whole entry): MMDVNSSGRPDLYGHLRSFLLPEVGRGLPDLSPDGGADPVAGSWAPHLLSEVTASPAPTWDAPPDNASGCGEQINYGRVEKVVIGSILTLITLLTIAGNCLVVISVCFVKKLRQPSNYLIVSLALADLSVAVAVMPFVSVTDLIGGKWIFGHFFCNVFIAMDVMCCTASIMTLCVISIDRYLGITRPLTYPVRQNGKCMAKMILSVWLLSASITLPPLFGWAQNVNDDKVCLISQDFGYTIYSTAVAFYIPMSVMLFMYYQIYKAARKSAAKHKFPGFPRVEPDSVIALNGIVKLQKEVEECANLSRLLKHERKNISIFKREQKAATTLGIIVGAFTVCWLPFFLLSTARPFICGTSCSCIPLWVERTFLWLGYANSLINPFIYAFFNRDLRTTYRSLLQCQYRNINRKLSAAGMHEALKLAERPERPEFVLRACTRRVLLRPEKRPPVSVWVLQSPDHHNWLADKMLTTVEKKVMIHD
T18 sequence (P25101 21-427): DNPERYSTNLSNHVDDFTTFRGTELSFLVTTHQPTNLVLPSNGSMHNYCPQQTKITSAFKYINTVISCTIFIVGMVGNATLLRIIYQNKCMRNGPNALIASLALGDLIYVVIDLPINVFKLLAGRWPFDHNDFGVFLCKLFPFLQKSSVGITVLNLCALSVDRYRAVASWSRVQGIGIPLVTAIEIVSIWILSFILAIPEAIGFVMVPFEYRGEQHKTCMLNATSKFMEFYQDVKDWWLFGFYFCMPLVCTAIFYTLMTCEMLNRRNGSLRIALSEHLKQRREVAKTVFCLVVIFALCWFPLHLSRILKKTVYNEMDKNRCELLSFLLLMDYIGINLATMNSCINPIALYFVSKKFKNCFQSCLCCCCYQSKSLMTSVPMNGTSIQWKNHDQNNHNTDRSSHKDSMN
T32 sequence (P21452 whole entry): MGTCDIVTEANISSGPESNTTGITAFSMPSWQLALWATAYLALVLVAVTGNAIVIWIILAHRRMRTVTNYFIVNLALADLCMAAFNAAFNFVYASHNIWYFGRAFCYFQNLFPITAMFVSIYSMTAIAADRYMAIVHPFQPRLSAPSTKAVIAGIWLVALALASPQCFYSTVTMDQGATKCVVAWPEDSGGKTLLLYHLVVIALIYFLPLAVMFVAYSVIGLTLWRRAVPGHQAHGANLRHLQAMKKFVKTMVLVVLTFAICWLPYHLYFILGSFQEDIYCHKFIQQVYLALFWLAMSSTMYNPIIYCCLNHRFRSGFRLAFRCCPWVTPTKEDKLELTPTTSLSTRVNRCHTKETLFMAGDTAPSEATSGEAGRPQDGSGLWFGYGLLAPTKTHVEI
T21 sequence (Q9BZJ7 whole entry): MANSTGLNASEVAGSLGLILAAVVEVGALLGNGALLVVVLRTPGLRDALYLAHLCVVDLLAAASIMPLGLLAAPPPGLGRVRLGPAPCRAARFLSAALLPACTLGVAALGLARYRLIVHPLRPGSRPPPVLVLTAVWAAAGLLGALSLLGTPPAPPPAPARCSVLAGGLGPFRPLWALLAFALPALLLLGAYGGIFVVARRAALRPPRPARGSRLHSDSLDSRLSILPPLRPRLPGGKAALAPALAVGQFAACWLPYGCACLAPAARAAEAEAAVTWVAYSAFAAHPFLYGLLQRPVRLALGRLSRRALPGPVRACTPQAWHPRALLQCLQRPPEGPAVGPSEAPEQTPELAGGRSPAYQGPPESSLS

| SMILES | GPCR activation (heatmap value) [1] | GPCR activation (heatmap value) [2] | GPCR activation (heatmap value) [3] | GPCR activation (heatmap value) [4] | GPCR activation (heatmap value) [5] | GPCR activation (heatmap value) [6] | GPCR activation (heatmap value) [7] | GPCR activation (heatmap value) [8] | GPCR activation (heatmap value) [9] | GPCR activation (heatmap value) [10] | GPCR activation (heatmap value) [11] | GPCR activation (heatmap value) [12] | GPCR activation (heatmap value) [13] | GPCR activation (heatmap value) [14] | GPCR activation (heatmap value) [15] | GPCR activation (heatmap value) [16] | GPCR activation (heatmap value) [17] | GPCR activation (heatmap value) [18] | GPCR activation (heatmap value) [19] | GPCR activation (heatmap value) [20] | also measured |
| --- | --- | --- | --- | --- | --- | --- | --- | --- | --- | --- | --- | --- | --- | --- | --- | --- | --- | --- | --- | --- | --- |
| CC(C)Cc1ncc(CCCCNC(=N)N)[nH]c1=O [3-Homo] | 0.4523 | -0.008314 | 0.5734 | 0.4155 | -0.2703 | 0.1163 | -0.9791 | 0.1024 | -0.1039 | 0.09912 | -1.034 | -0.1727 | 1.001 | 0.07991 | 0.3386 | -0.5864 | 0.3945 | -0.554 | 0.1789 | -1.632 | GPCR activation (heatmap value) [21]: 0.1938; GPCR activation (heatmap value) [22]: -0.01288; GPCR activation (heatmap value) [23]: -0.3425; GPCR activation (heatmap value) [24]: -0.9265; GPCR activation (heatmap value) [25]: 0.1373; GPCR activation (heatmap value) [26]: -0.7802; GPCR activation (heatmap value) [27]: -0.4672; GPCR activation (heatmap value) [28]: -0.001199; GPCR activation (heatmap value) [29]: -1.005; GPCR activation (heatmap value) [30]: -0.2493; GPCR activation (heatmap value) [31]: -0.5775; GPCR activation (heatmap value) [32]: 0.6939; GPCR activation (heatmap value) [33]: 0.1368; GPCR activation (heatmap value) [34]: 0.009703; GPCR activation (heatmap value) [35]: 0.08839; GPCR activation (heatmap value) [36]: 0.05555 |
| CC(C)Cc1ncc(CCCNC(=N)N)[nH]c1=O [compound 3] | 0.02852 | -0.4356 | 0.1012 | -0.2243 | -0.09983 | -0.3941 | 0.1054 | 0.1911 | 0.6209 | -0.07329 | 0.8088 | 0.1369 | 1.542 | 0.6085 | 0.04774 | 0.329 | 0.06622 | -0.2835 | 0.3036 | 0.06134 | GPCR activation (heatmap value) [21]: 1.991; GPCR activation (heatmap value) [22]: 0.2361; GPCR activation (heatmap value) [23]: -0.7734; GPCR activation (heatmap value) [24]: -0.4869; GPCR activation (heatmap value) [25]: -0.4085; GPCR activation (heatmap value) [26]: 0; GPCR activation (heatmap value) [27]: 0.1913; GPCR activation (heatmap value) [28]: -0.2058; GPCR activation (heatmap value) [29]: -1.319; GPCR activation (heatmap value) [30]: 0.5944; GPCR activation (heatmap value) [31]: 0.3051; GPCR activation (heatmap value) [32]: 0.2945; GPCR activation (heatmap value) [33]: 0.8064; GPCR activation (heatmap value) [34]: 0.3717; GPCR activation (heatmap value) [35]: -0.5682; GPCR activation (heatmap value) [36]: -1.121 |
